Source: EP0171342A1, “Substituted 2-(1-amino-akylidenyl)1,3-indane diones, process for their preparation and their therapeutical use” (priority 1984, dated 1986)
pIC50: −log10 of the molar value. ≈ marks a conversion by molar mass, not a printed value. Like-named read-outs stand apart in the source and are kept apart here.

Legend:
iléon de cobaye = assay: Spasmolytic activity: guinea pig ileum contractions induced by transmural stimulation; conditions: 2 microg/ml, oxygenated Krebs solution at 32°C; for inhibition at 2 µg/mL: read-out: inhibition de ces contractions
Procedure: L'activité spasmolytique a été déterminée in vitro par la mesure de l'effet du produit à tester sur les contractions de l'iléon de cobaye induites par stimulation transmurale dans une solution de Krebs oxygénée à 32°C. Le COR4010 et le COR3773 utilisés à la concentration de 2 microg/ml entrainent 50% d'inhibition de ces contractions.

[1] = system: oedème induit par l'injection intraplantaire de carragénine chez le rat; assay: Anti-inflammatory activity: carrageenan paw oedema in rats; type: in vivo; conditions: oral 1 h before carrageenan, measured 3 h after
Procedure: L'activité antiinflammatoire a été déterminée chez le rat par la mesure de l'inhibition de l'oedème induit par l'injection intraplantaire de 0,1 ml d'une suspension à 1% de carragénine chez le rat. Les produits à tester sont administrés par voie orale lh avant l'injection de carragénine et la mesure est réalisée 3h après cette injection. Les COR3789, COR3792, COR4003, COR4008 et COR4010 administrés à 10b mg/kg entrainent respectivement 43, 42, 41, 38 et 39% d'inhibition. Administré à 200 mg/kg, le COR3773 entraine 53% d'inhibition. L'aspirine administrée dans les mêmes conditions à 150 mg/kg entraine 40% d'inhibition de l'oedème.

souris [2] = assay: Acute toxicity (mortality, LD50) in mice; type: in vivo; conditions: mouse
[3] = system: segments d'iléon de cobaye isolés; assay: Anticholinergic activity: acetylcholine-induced contractions of isolated guinea pig ileum; conditions: Cavia porcellus; contractions induced by 0,1 microg/ml acetylcholine; read-out: concentration qui inhibe ces contractions de 80%
Excerpt: L'activité anticholinergique a été appréciée par la mesure des contractions induites par 0,1 microg/ml d'acétylcholine sur des segments d'iléon de cobaye isolés. Les COR3760, COR3789, COR3792, COR4003, COR4008, COR4010, COR4014 utilisés respectivement aux concentrations de 50, 25, 25, 50, 25, 10, 25 microg/ml inhibent ces contractions de 80%.

[4] = system: oreillette gauche de cobaye; assay: Calcium antagonist activity: electrically stimulated guinea pig left atrium; conditions: 150 beats/min, low-calcium (0,6 mM) Tyrode solution; read-out: concentration qui inhibe de 50% l'augmentation de la force de contraction induite par l'addition de 0,6 mM de calcium
Procedure: L'activité anticalcique a été déterminée in vitro sur deux modèles expérimentaux.
Sur oreillette gauche de cobaye stimulée électriquement à 150 battements/mn dans une solution de Tyrode pauvre en calcium (0,6 mM), les COR3789, COR3792, COR4009, COR4010 et COR4011 employés respectivement à 25, 100, 50, 10 et 25 microg/ml inhibent de 50% l'augmentation de la force de contraction induite par l'addition de 0,6 mM de calcium.

[5] = system: poumon de cobaye isolé perfusé; assay: Bronchodilator activity: isolated perfused guinea pig lung contracted by methacholine; conditions: flow of Tyrode solution, lung contracted by 0,05 microg/ml methacholine; read-out: concentration qui augmente ce débit de 50%
Excerpt: L'activité bronchodilatatrice a été déterminée in vitro par la mesure du débit d'une solution de Tyrode à travers un poumon de cobaye isolé perfusé, contracté par l'addition au fluide de perfusion de 0,05 microg/ml de méthacholine. Les COR3760, COR3789, COR3792, COR4003, COR4008, COR4010 et COR4014 utilisés respectivement aux concentrations de 50, 50, 100, 10, 50, 50 et 10 microg/ml augmentent ce débit de 50%. L'aminophylline entraine cette même activité à la concentration de 100 microg/ml.

[6] = system: rat soumis à une surcharge hydrique; assay: Diuretic activity in rats given a water overload, oral; type: in vivo; conditions: rat, water overload, oral; for response vs control in vivo at 20 mg/kg: read-out: facteur multipliant l'excrétion urinaire du sodium
Procedure: L'activité diurétique a été déterminée sur plusieurs modèles expérimentaux. Chez le rat soumis à une surcharge hydrique, administrés par voie orale à la dose de 20 mg/kg, le COR3760, le COR3789, le COR3792, le COR4002, le COR4003, le COR4009, le COR4010, le COR4012 et le COR4014 multiplient l'excrétion urinaire du sodium par respectivement un facteur 2,9 - 3,1 - 5,9 - 2,6 - 7,2 - 3,5 - 3,8 - 2,9 - 2,4. Administrés à la dose de 10 mg/kg, dans les mêmes conditions, les COR3760, COR3789, COR3792, COR4003 et COR4010 multiplient l'excrétion sodique par respectivement 2,3 - 2,9 - 2,8 - 2,4 et 2,5. La spironolactone multiplie quant à elle l'excrétion sodique d'un facteur 3,6 à la dose de 20 mg/kg. Administré à la dose de 5 mg/kg dans les mêmes conditions, le COR3792 multiplie l'excrétion sodique par 3,3. Administré par voie orale chez le rat ou la souris soumis à une surcharge saline, le COR3760 augmente l'excrétion urinaire volumétrique mesurée à la sixième heure de respectivement 49, 119 et 134% chez la souris et 28, 84 et 116% chez le rat après administration de 10, 20, et 40 mg/kg. Le COR3760 a été administré par voie orale au rat soumis à une surcharge hydrique et l'excrétion urinaire volumétrique, le sodium et le potassium excrétés ont été mesurés sur une période de 6 heures; ces paramètres ont varié de respectivement +17%, +102%, +165% à 10 mg/kg, +19%, +147%, +180% à 20 mg/kg et +36%, +415% et +239% à 40 mg/kg; le rapport Na/K passe de 0,56 chez les animaux témoins à 0,4 à 10 mg/kg, 0,49 à 20 mg/kg et 0, 8 à 40 mg/ kg. Au cours d'une seconde expérimentation, le COR3760 a entrainé des variations de +19%, +157%, +70% à 40 mg/kg, +19%, +319%, +90% à 60 mg/kg et +29%, +472% et +77% à 80 mg/kg; le rapport Na/K passe de 0,59 chez les animaux témoins à 0,88 à 40, 1,15 à 60 et 1,88 à 80 mg/kg.

souris [7] = assay: Anticonvulsant activity: maximal electroshock convulsions in mice; type: in vivo; conditions: mouse, oral, 100 mg/kg, one hour after administration
Excerpt: L'activité anticonvulsivante est appréciée dans le test de la prévention des convulsions induites par des électrochocs d'intensité maximale.

[8] = system: strips de veines mésentériques porte de rats normotendus; assay: Calcium antagonist activity: spontaneous contractions of rat portal mesenteric vein strips; conditions: 10 microg/ml
[9] = system: rat Wistar soumis à une surcharge saline; assay: Diuretic activity in selected Wistar rats given a saline overload (modified Wiebelhaus test); type: in vivo
Procedure: L'activité diurétique des produits selon l'invention a été également déterminée chez le rat Wistar soumis à une surcharge saline selon une modification du test décrit par Wiebelhaus et coll., Fed. Proc., 1960, 19, 364, en procédant à une sélection des animaux. A la dose de 20 mg/kg, les COR4003, COR4008, COR4009, COR4010, COR4011, COR4012, COR4014, COR4016, COR4021, COR4025 augmentent l'excrétion urinaire volumétrique mesurée au bout de 6 heures de respectivement 56, 54, 65, 95, 73, 54, 33, 40, 99 et 92 %. L'excrétion urinaire du sodium augmente de respectivement 56, 24, 42, 59, 43, 33, 29, 43, 31, 83, 26, 99, 40 % toujours à cette dose pour les COR4003, COR4008, COR4009, COR4010, COR4011, COR4012, COR4014, COR4016, COR4017, COR4021, COR4023, COR4025 et COR4026. Le rapport Na/K demeure la plupart du temps inchangé. Testé dans les mêmes conditions le furosémide, administré à la dose de 20 mg/kg entraine 63% d'augmentation de l'excrétion urinaire volumétrique et 53% d'augmentation de l'excrétion urinaire du sodium.

[10] = target: oreillettes droites de cobaye (Cavia porcellus, UniProt P47747); assay: Anti-H2 activity: histamine-induced chronotropic effect on unstimulated guinea pig right atria
oreillettes droites de cobaye, sequence (P47747 whole entry): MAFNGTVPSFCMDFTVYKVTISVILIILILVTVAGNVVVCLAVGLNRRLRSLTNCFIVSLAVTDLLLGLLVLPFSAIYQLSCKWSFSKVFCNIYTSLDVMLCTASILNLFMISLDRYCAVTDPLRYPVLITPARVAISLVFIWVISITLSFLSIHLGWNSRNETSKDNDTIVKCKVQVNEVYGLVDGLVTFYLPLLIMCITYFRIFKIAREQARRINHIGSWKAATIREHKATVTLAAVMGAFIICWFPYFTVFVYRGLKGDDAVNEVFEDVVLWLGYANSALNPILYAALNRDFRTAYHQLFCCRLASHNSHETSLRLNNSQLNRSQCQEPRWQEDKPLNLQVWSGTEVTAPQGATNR

souris [11] = assay: Antidepressant activity: inhibition of reserpine-induced ptosis in mice; type: in vivo; conditions: mouse, oral 50 mg/kg 90 min before reserpine 5 mg/kg i.p.; index 0 (maximum ptosis) to 6 (no ptosis)
Procedure: L'activité antidépressive a été déterminée dans le test de potentialisation de la toxicité de la yohimbine et dans le test de l'inhibition du ptosis induit par la réserpine.
On injecte par voie sous cutanée à des souris, lh avant l'administration par voie orale du produit à tester, une dose non léthale de yohimbine soit 15 mg/kg. Le COR3760 administré à la dose de 100 mg/kg entraine 80% de mortalité dans ces conditions. Des souris reçoivent par voie orale le produit à tester 90 mn avant l'injection par voie intrapéritonéale de 5 mg/kg de réserpine solubilisée. On cote le ptosis selon un index allant de 0 à 6, la cote 0 correspondant à un ptosis maximum et la cote 6 à l'absence de ptosis. Les COR3760 et COR4011 conduisent dans les conditions de l'expérience à un ptosis coté à 4 pour une dose de respectivement 200 et 50 mg/kg.

souris [12] = assay: Anticonvulsant activity: bicuculline-induced convulsions in mice; type: in vivo; conditions: mouse, i.p., 100 mg/kg
Procedure: L'activité anticonvulsivante est également déterminée dans le test des inhibitions des convulsions induites par la bicuculline. Des souris reçoivent par voie intrapéritonéale le produit à tester, puis 30 mn et 5 heures plus tard, deux injections séparées de 0,5 mg de bicuculline. […] Les résultats de ce test sont le reflet d'une activité gabaergique directe.

[13] = 6 h, read-out: augmentation de l'excrétion urinaire volumétrique mesurée au bout de 6 heures
[14] = read-out: augmentation de l'excrétion urinaire du sodium

Compound	mortalité (souris [2]; intraperitoneal, 200 mg/kg)	mortalité (souris [2]; oral, 300 mg/kg)	IC80 [3] [µg/mL]	IC50 [4] [µg/mL]	inhibition de l'oedème ([1]; dose 10b mg/kg [sic]) [%]	EC50 [5] [µg/mL]	facteur multipliant l'excrétion sodique ([6]; 10 mg/kg)	response vs control in vivo at 20 mg/kg [6] [%]	inhibition de l'augmentation, induite par le calcium, des contractions spontanées [8]	further results
CNC(C)=C1C(=O)c2ccc(Cl)cc2C1=O [COR3773, Chloro-5 (méthylamino-1 éthylidène)-2 indanedione-1,3]	aucune mortalité	aucune mortalité	–	–	–	–	–	–	–	inhibition at 2 µg/mL (iléon de cobaye): 50%; inhibition de l'oedème ([1]; 200 mg/kg): 53%
COc1ccc(Cc2nccc3cc(OC)c(OC)cc23)cc1OC [papavérine, reference compound]	–	–	–	–	–	–	–	–	–	inhibition de ces contractions (iléon de cobaye): la même activité
CC(NC(C)C)=C1C(=O)c2ccccc2C1=O [COR3792, (Isopropylamino-1 éthylidène)-2 indanedione-1,3]	aucune mortalité	aucune mortalité	25 (≈ 109 µM)	100 (≈ 436 µM)	42	100 (≈ 436 µM)	2,8	590	–	facteur multipliant l'excrétion sodique ([6]; 5 mg/kg): 3,3
CCCC(C)(COC(N)=O)COC(N)=O [méprobamate, reference compound]	–	–	–	–	–	–	–	–	–	prévention des convulsions induites par des électrochocs d'intensité maximale (souris [7]): on n'observe plus de convulsions
CCCCNC(C)=C1C(=O)c2ccccc2C1=O [COR4010, (Butylamino-1 éthylidényl)-2 indanedione-1,3]	aucune mortalité	aucune mortalité	10 (≈ 41.1 µM)	10 (≈ 41.1 µM)	39	50 (≈ 206 µM)	2,5	380	inhibent l'augmentation	inhibition at 2 µg/mL (iléon de cobaye): 50%; change in vivo at 20 mg/kg [9, 13]: 95%; change in vivo at 20 mg/kg [9, 14]: 59%
CCNC(C)=C1C(=O)c2ccccc2C1=O [COR3789, (Ethylamino-1 éthylidène)-2 indanedione-1,3]	aucune mortalité	aucune mortalité	25 (≈ 116 µM)	25 (≈ 116 µM)	43	50 (≈ 232 µM)	2,9	310	inhibent l'augmentation	–
CC(NCC1CC1)=C1C(=O)c2ccccc2C1=O [COR4011, (Cyclopropylméthylamino-1 éthylidényl)-2 indanedione-1,3]	aucune mortalité	aucune mortalité	–	25 (≈ 104 µM)	–	–	–	–	inhibent l'augmentation	effet chronotrope négatif intrinsèque ([10]; at the concentration inhibiting the histamine effect by 50 % (COR4003 100, COR4011 50 microg/ml)): ne présentant pas d'effet chronotrope négatif intrinsèque; pIC50 ([10]; read-out: concentration qui inhibe de 50 % cet effet chronotrope, chronotropic effect induced by 5 microg/ml histamine): 3.68; ptosis coté (souris [11]): 4; change in vivo at 20 mg/kg [9, 13]: 73%; change in vivo at 20 mg/kg [9, 14]: 43%
CCCC(CCC)C(=O)O [valproate de sodium, reference compound]	–	–	–	–	–	–	–	–	–	inhibition des convulsions induites par la bicuculline (souris [12]; first bicuculline injection (30 min later)): inhibe les convulsions induites par la première injection; inhibition des convulsions induites par la bicuculline (souris [12]; second bicuculline injection (5 hours later)): sans inhiber celles induites par la deuxième
